# Data from ChEMBL document CHEMBL1147275, “An Antibiotic from Trichoderma Koningii Active Against Soilborne Plant Pathogens” (1989).
# Assays:
# Assay type in all cases: functional
# Gaeumannomyces tritici [1] = experiment: Antimicrobial activity of broth culture isolated compound against Gaeumannomyces graminis var. tritici assessed as colony area after 2 days
# Gaeumannomyces tritici [2] = experiment: Antimicrobial activity of broth culture isolated compound against Gaeumannomyces graminis var. tritici assessed as colony area after 3 days
# Gaeumannomyces tritici [3] = experiment: Antimicrobial activity of broth culture isolated compound against Gaeumannomyces graminis var. tritici assessed as colony area after 4 days
# Gaeumannomyces tritici [4] = experiment: Antimicrobial activity of broth culture isolated compound against Gaeumannomyces graminis var. tritici assessed as colony area after 5 days
# Gaeumannomyces tritici [5] = experiment: Antimicrobial activity of broth culture isolated compound against Gaeumannomyces graminis var. tritici assessed as colony area after 6 days
# Gaeumannomyces tritici [6] = experiment: Antimicrobial activity of agar culture isolated compound against Gaeumannomyces graminis var. tritici assessed as colony area after 1 day
# Gaeumannomyces tritici [7] = experiment: Antimicrobial activity of agar culture isolated compound against Gaeumannomyces graminis var. tritici assessed as colony area after 2 days
# Gaeumannomyces tritici [8] = experiment: Antimicrobial activity of agar culture isolated compound against Gaeumannomyces graminis var. tritici assessed as colony area after 3 days
# Rhizoctonia solani [9] = experiment: Antimicrobial activity of agar culture isolated compound against Rhizoctonia solani assessed as colony area after 1 day
# Rhizoctonia solani [10] = experiment: Antimicrobial activity of agar culture isolated compound against Rhizoctonia solani assessed as colony area after 2 days
# Rhizoctonia solani [11] = experiment: Antimicrobial activity of agar culture isolated compound against Rhizoctonia solani assessed as colony area after 3 days
# Phytophthora cinnamomi [12] = experiment: Antimicrobial activity of agar culture isolated compound against Phytophthora cinnamomi assessed as colony area after 1 day
# Phytophthora cinnamomi [13] = experiment: Antimicrobial activity of agar culture isolated compound against Phytophthora cinnamomi assessed as colony area after 2 days
# Phytophthora cinnamomi [14] = experiment: Antimicrobial activity of agar culture isolated compound against Phytophthora cinnamomi assessed as colony area after 3 days
# [15] = test system: Globisporangium middletonii; experiment: Antimicrobial activity of agar culture isolated compound against Pythium middletonii assessed as colony area after 1 day
# [16] = test system: Globisporangium middletonii; experiment: Antimicrobial activity of agar culture isolated compound against Pythium middletonii assessed as colony area after 2 days
# [17] = test system: Globisporangium middletonii; experiment: Antimicrobial activity of agar culture isolated compound against Pythium middletonii assessed as colony area after 3 days
# Fusarium oxysporum [18] = experiment: Antimicrobial activity of agar culture isolated compound against Fusarium oxysporum assessed as colony area after 1 day
# Fusarium oxysporum [19] = experiment: Antimicrobial activity of agar culture isolated compound against Fusarium oxysporum assessed as colony area after 2 days
# Fusarium oxysporum [20] = experiment: Antimicrobial activity of agar culture isolated compound against Fusarium oxysporum assessed as colony area after 3 days
# Bipolaris sorokiniana [21] = experiment: Antimicrobial activity of agar culture isolated compound against Bipolaris sorokiniana assessed as colony area after 1 day
# Bipolaris sorokiniana [22] = experiment: Antimicrobial activity of agar culture isolated compound against Bipolaris sorokiniana assessed as colony area after 2 days
# Bipolaris sorokiniana [23] = experiment: Antimicrobial activity of agar culture isolated compound against Bipolaris sorokiniana assessed as colony area after 3 days
compound,measurement,setting,value
CCCCCC[C@H](O)[C@@H]1C[C@@H](O)C2=C(O1)[C@H](O)CCC2=O,Activity,Gaeumannomyces tritici [1],32 mm2
same,Activity,Gaeumannomyces tritici [2],33 mm2
same,Activity,Gaeumannomyces tritici [3],63 mm2
same,Activity,Gaeumannomyces tritici [4],198 mm2
same,Activity,Gaeumannomyces tritici [5],549 mm2
same,Activity,Gaeumannomyces tritici [6],40 mm2
same,Activity,Gaeumannomyces tritici [7],42 mm2
same,Activity,Gaeumannomyces tritici [8],44 mm2
same,Activity,Rhizoctonia solani [9],38 mm2
same,Activity,Rhizoctonia solani [10],42 mm2
same,Activity,Rhizoctonia solani [11],46 mm2
same,Activity,Phytophthora cinnamomi [12],37 mm2
same,Activity,Phytophthora cinnamomi [13],38 mm2
same,Activity,Phytophthora cinnamomi [14],92 mm2
same,Activity,[15],38 mm2
same,Activity,[16],184 mm2
same,Activity,[17],232 mm2
same,Activity,Fusarium oxysporum [18],46 mm2
same,Activity,Fusarium oxysporum [19],103 mm2
same,Activity,Fusarium oxysporum [20],170 mm2
same,Activity,Bipolaris sorokiniana [21],44 mm2
same,Activity,Bipolaris sorokiniana [22],46 mm2
same,Activity,Bipolaris sorokiniana [23],45 mm2
